Data from patent publication EP3046573B1, “AMYLIN ANALOGUES” (Zealand Pharma A/S, priority 2013, dated 2015).
Numbered stars: 1 amine (or outer) side, 2 acyl side, 3 side chain; on linkers, the order of the positions; unused ones are H or OH. Bridge positions count the residues as written; N and C are the ends. Square brackets hold non-standard residues; d marks the D form. Peptide text beside a SMILES is read from it. * marks the point of attachment. C20 diacid = O=C(O)CCCCCCCCCCCCCCCCCCC(=O)*; γGlu = O=C(O)[C@H](CCC(=O)[*:2])N[*:1]; NMeI = CC[C@H](C)[C@H](NC)C(=O)O; Sar = CNCC(=O)O

Assays:
[1] = Solubility assessment (turbidity absorbance at 325 nm); format: physicochemical; settings: stock 2 mg/ml diluted 1:1, ambient temperature (typically 25°C), n=1; for Solubility, Acetate buffer pH 4: 100 mM acetate buffer pH 4.0; for Solubility, Acetate buffer pH 5: 100 mM acetate buffer pH 5.0; for Solubility, Histidine buffer pH 6: 100 mM histidine buffer pH 6.0; for Solubility, Histidine buffer pH 7: 100 mM histidine buffer pH 7.0; for Solubility, Phosphate buffer pH 6: 100 mM phosphate buffer pH 6.0; for Solubility, Phosphate buffer pH 7: 100 mM phosphate buffer pH 7.0; for Solubility, Phosphate buffer pH 7.5: 100 mM phosphate buffer pH7.5
In short: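 Turbidity read as absorbance at 325 nm (also 280 nm), single samples at ambient temperature (typically 25°C); ≤ 0.02 units counts as ≥ 1 mg/ml soluble. Samples made by 1:1 dilution of a 2 mg/ml acidic stock into 100 mM acetate, histidine or phosphate buffers, pH 4.0–7.5.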

[2] = molecular target: T1, human amylin receptor 3 (hAMYR3) consisting of hCTR2 co-expressed with human Receptor Activity Modifying Protein 3 (hRAMP3) (Homo sapiens, UniProt O60896+P30988); assay: hAMYR3 assay: induction of cAMP (AlphaScreen cAMP Assay kit) in COS7 cells expressing hAMYR3; format: cell-based; settings: cAMP induction in COS7 cells expressing hAMYR3; average of a minimum of 3 determinations; read-out: hAMY R3 EC50
T1 construct: expressed in transfected cells
T1 sequence (P30988 25-474): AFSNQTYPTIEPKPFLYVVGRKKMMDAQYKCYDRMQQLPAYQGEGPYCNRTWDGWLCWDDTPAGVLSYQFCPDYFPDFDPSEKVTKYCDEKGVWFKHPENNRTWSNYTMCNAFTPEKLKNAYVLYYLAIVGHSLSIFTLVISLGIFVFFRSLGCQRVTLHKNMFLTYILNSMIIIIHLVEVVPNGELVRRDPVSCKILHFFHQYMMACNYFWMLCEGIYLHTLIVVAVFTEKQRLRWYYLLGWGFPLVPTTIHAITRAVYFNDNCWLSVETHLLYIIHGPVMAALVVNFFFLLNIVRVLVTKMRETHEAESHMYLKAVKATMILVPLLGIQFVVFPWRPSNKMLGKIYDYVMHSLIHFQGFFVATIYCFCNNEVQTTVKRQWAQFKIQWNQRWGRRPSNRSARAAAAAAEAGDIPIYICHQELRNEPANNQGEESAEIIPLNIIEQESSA
T1 sequence (O60896 24-148 partner): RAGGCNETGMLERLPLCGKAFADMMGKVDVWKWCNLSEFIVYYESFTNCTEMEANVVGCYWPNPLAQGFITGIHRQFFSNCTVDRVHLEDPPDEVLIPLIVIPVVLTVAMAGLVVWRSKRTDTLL
In short: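 cAMP accumulation read by AlphaScreen in lysates of RAMP-naive COS7 cells stably transfected with hCTR2 plus hRAMP3. Cells exposed to peptide dilutions for 15 min, 37° C, with 100 µM IBMX; 4PL fitting gave EC50 and efficacy relative to pramlintide.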

[3] = molecular target: T2, human calcitonin receptor (hCTR2) (Homo sapiens, UniProt P30988); assay: hCTR2 assay: induction of cAMP (AlphaScreen cAMP Assay kit) in COS7 cells expressing hCTR2; format: cell-based; settings: cAMP induction in COS7 cells expressing hCTR2; average of a minimum of 3 determinations; read-out: hCTR2 EC50
T2 construct: expressed in transfected cells
T2 sequence (P30988 25-474): T1 sequence (P30988 25-474)
In short: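 cAMP induction was measured by AlphaScreen in COS7 cells stably expressing hCTR2 without RAMPs, after 15 min at 37° C with increasing peptide concentrations, 100 µM IBMX and 0.1% casein (Tyrode, pH 7.4). A 4-parameter logistic fit gave EC50 and % efficacy versus pramlintide.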

Structure (SMILES) | Solubility, Acetate buffer pH 4 [1] | Solubility, Acetate buffer pH 5 [1] | Solubility, Histidine buffer pH 6 [1] | Solubility, Histidine buffer pH 7 [1] | Solubility, Phosphate buffer pH 6 [1] | Solubility, Phosphate buffer pH 7 [1] | Solubility, Phosphate buffer pH 7.5 [1] | EC50 [2] | EC50 [3]
CC[C@H](C)[C@@H](C(=O)N[C@@H](CC(C)C)C(=O)N[C@@H](CO)C(=O)N[C@@H](CO)C(=O)N[C@H](C(=O)N[C@@H](CCC(=O)O)C(=O)N[C@H](C(=O)NCC(=O)N[C@@H](CO)C(=O)N[C@@H](CCC(=O)O)C(=O)N[C@H](C(=O)N1CCC[C@H]1C(N)=O)[C@@H](C)O)C(C)C)[C@@H](C)O)N(C)C(=O)[C@H](C)NC(=O)CN(C)C(=O)[C@H](Cc1ccccc1)NC(=O)[C@H](CO)NC(=O)[C@H](CO)NC(=O)[C@H](CO)NC(=O)[C@H](CO)NC(=O)[C@H](CCCNC(=N)N)NC(=O)[C@H](Cc1c[nH]cn1)NC(=O)[C@H](CC(C)C)NC(=O)[C@H](Cc1ccccc1)NC(=O)[C@H](CCC(=O)O)NC(=O)[C@H](C)NC(=O)[C@H](CC(C)C)NC(=O)[C@H](CCCNC(=N)N)NC(=O)CNC(=O)[C@@H](NC(=O)[C@H](C)NC(=O)[C@@H]1CSSC[C@H](NC(=O)[C@H](CCCNC(=N)N)NC(=O)CC[C@H](NC(=O)CCCCCCCCCCCCCCCCCCC(=O)O)C(=O)O)C(=O)N[C@@H](CO)C(=O)N[C@@H]([C@@H](C)O)C(=O)N[C@@H](C)C(=O)N[C@@H]([C@@H](C)O)C(=O)N1)[C@@H](C)O [Compound 132, [19CD]-isoGlu-RC()STATC()ATGRLAEFLHRSSSSF-Gly(Me)-A-Ile(Me)-LSSTEVGSETP-NH2] ({C20 diacid-γGlu}-RCSTATCATGRLAEFLHRSSSSF[Sar]A[NMeI]LSSTEVGSETP-NH2; disulfide 2-7) | SS (SS indicates solubility ≥ 1mg/ml) | SS (SS indicates solubility ≥ 1mg/ml) | SS (SS indicates solubility ≥ 1mg/ml) | SS (SS indicates solubility ≥ 1mg/ml) | SS (SS indicates solubility ≥ 1mg/ml) | SS (SS indicates solubility ≥ 1mg/ml) | SS (SS indicates solubility ≥ 1mg/ml) | 0.35 nM | 0.22 nM
CC[C@H](C)[C@@H](C(=O)N[C@@H](CC(C)C)C(=O)N[C@@H](CO)C(=O)N[C@@H](CO)C(=O)N[C@H](C(=O)N[C@@H](CCC(=O)O)C(=O)N[C@H](C(=O)NCC(=O)N[C@@H](CO)C(=O)N[C@@H](CCC(=O)O)C(=O)N[C@H](C(=O)N1CCC[C@H]1C(N)=O)[C@@H](C)O)C(C)C)[C@@H](C)O)N(C)C(=O)[C@H](C)NC(=O)CN(C)C(=O)[C@H](Cc1ccccc1)NC(=O)[C@H](CO)NC(=O)[C@H](CO)NC(=O)[C@H](CO)NC(=O)[C@H](CO)NC(=O)[C@H](CCCNC(=N)N)NC(=O)[C@H](Cc1c[nH]cn1)NC(=O)[C@H](CC(C)C)NC(=O)[C@H](Cc1ccccc1)NC(=O)[C@H](CCC(=O)O)NC(=O)[C@H](C)NC(=O)[C@H](CC(C)C)NC(=O)[C@H](CCCNC(=N)N)NC(=O)[C@H](CO)NC(=O)[C@@H](NC(=O)[C@H](C)NC(=O)[C@@H]1CSSC[C@H](NC(=O)[C@H](CCCNC(=N)N)NC(=O)CC[C@H](NC(=O)CCCCCCCCCCCCCCCCCCC(=O)O)C(=O)O)C(=O)N[C@@H](CO)C(=O)N[C@@H]([C@@H](C)O)C(=O)N[C@@H](C)C(=O)N[C@@H]([C@@H](C)O)C(=O)N1)[C@@H](C)O [Compound 133, [19CD]-isoGlu-RC()STATC()ATSRLAEFLHRSSSSF-Gly(Me)-A-Ile(Me)-LSSTEVGSETP-NH2] ({C20 diacid-γGlu}-RCSTATCATSRLAEFLHRSSSSF[Sar]A[NMeI]LSSTEVGSETP-NH2; disulfide 2-7) | SS (SS indicates solubility ≥ 1mg/ml) | SS (SS indicates solubility ≥ 1mg/ml) | SS (SS indicates solubility ≥ 1mg/ml) | SS (SS indicates solubility ≥ 1mg/ml) | SS (SS indicates solubility ≥ 1mg/ml) | SS (SS indicates solubility ≥ 1mg/ml) | SS (SS indicates solubility ≥ 1mg/ml) | 0.36 nM | 0.3 nM
CC[C@H](C)[C@@H](C(=O)N[C@@H](CC(C)C)C(=O)N[C@@H](CO)C(=O)N[C@@H](CO)C(=O)N[C@H](C(=O)N[C@@H](CCC(=O)O)C(=O)N[C@H](C(=O)NCC(=O)N[C@@H](CO)C(=O)N[C@@H](CCC(=O)O)C(=O)N[C@H](C(=O)N1CCC[C@H]1C(N)=O)[C@@H](C)O)C(C)C)[C@@H](C)O)N(C)C(=O)[C@H](C)NC(=O)CN(C)C(=O)[C@H](Cc1ccccc1)NC(=O)[C@H](CO)NC(=O)[C@H](CO)NC(=O)[C@H](CO)NC(=O)[C@H](CO)NC(=O)[C@H](CCCNC(=N)N)NC(=O)[C@H](Cc1c[nH]cn1)NC(=O)[C@H](CC(C)C)NC(=O)[C@H](Cc1ccccc1)NC(=O)[C@H](CCC(=O)O)NC(=O)[C@H](C)NC(=O)[C@H](CC(C)C)NC(=O)[C@H](CCCNC(=N)N)NC(=O)[C@H](CCC(=O)O)NC(=O)[C@@H](NC(=O)[C@H](C)NC(=O)[C@@H]1CSSC[C@H](NC(=O)[C@H](CCCNC(=N)N)NC(=O)CC[C@H](NC(=O)CCCCCCCCCCCCCCCCCCC(=O)O)C(=O)O)C(=O)N[C@@H](CO)C(=O)N[C@@H]([C@@H](C)O)C(=O)N[C@@H](C)C(=O)N[C@@H]([C@@H](C)O)C(=O)N1)[C@@H](C)O [Compound 135, [19CD]-isoGlu-RC()STATC()ATERLAEFLHRSSSSF-Gly(Me)-A-Ile(Me)-LSSTEVGSETP-NH2] ({C20 diacid-γGlu}-RCSTATCATERLAEFLHRSSSSF[Sar]A[NMeI]LSSTEVGSETP-NH2; disulfide 2-7) | SS (SS indicates solubility ≥ 1mg/ml) | SS (SS indicates solubility ≥ 1mg/ml) | SS (SS indicates solubility ≥ 1mg/ml) | SS (SS indicates solubility ≥ 1mg/ml) | SS (SS indicates solubility ≥ 1mg/ml) | SS (SS indicates solubility ≥ 1mg/ml) | SS (SS indicates solubility ≥ 1mg/ml) | 0.61 nM | 0.76 nM
